Measured values from US7906507B2, “Oxadiazoanthracene compounds for the treatment of diabetes” (TransTech Pharma, Inc., priority 2008, dated 2011).
pEC50: −log10 of the molar value.

Target: T1, cloned human GLP-1 receptor (Homo sapiens, UniProt P43220)
T1 construct: expressed in transfected cells; host or cells: CHO or HEK-293 cells
Experiment: Functional cell-based assay: cAMP functional assay
Conditions: for Emax: 0.5 h, percentage relative to maximal GLP-1-induced cAMP accumulation, na = not active in the assay, read-out: % activation
Outline: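 Monolayer cells incubated 30 min at 37 °C with compounds (0.0001–100 μM) in IMDM containing 100 μM RO 20-1724 PDE inhibitor, 0.1% BSA and 2% DMSO. cAMP measured by HTRF.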

T1 sequence (P43220 24-463): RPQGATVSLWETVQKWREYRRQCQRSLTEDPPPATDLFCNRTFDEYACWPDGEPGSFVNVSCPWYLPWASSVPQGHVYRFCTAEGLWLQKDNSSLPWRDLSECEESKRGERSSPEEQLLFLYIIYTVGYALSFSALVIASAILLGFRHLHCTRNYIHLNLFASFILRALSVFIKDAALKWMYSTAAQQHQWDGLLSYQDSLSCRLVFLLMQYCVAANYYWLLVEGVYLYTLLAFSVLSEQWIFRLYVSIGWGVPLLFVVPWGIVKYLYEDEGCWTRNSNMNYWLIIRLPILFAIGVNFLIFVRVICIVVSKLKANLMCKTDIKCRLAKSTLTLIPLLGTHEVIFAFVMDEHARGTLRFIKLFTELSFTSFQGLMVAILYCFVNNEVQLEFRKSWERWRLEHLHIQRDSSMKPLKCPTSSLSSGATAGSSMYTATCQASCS

| SMILES | pEC50 | Emax [%] |
| --- | --- | --- |
| CC[C@@H](c1ccccc1)N1Cc2cc3c(cc2C[C@H]1C(=O)N[C@@H](Cc1ccc(-c2ccc(OC)cc2)cc1)C(=O)O)N(C)C(=O)[C@@H](c1ccc(OCc2ccc(Cl)c(Cl)c2)cc1)O3 [Example 91, (S)-2-{[(3R,7S)-3-[4-(3,4-Dichloro-benzyloxy)-phenyl]-1-methyl-2-oxo-6-((S)-1-phenyl-propyl)-2,3,5,6,7,8-hexahydro-1H-4-oxa-1,6-diaza-anthracene-7-carbonyl]-amino}-3-(4′-methoxy-biphenyl-4-yl)-propionic acid] | 6.14 | 39 |
| Cc1cccc(C(=O)N2Cc3cc4c(cc3C[C@H]2C(=O)N[C@@H](Cc2ccc(-c3ccc(C#N)cc3)cc2)C(=O)O)NC(=O)C(c2ccc(OCc3ccc(Cl)c(Cl)c3)cc2)O4)c1 (stereo partly drawn) [Example 21, (S)-3-(4′-Cyano-biphenyl-4-yl)-2-{[(S)-3-[4-(3,4-dichloro-benzyloxy)-phenyl]-6-(3-methyl-benzoyl)-2-oxo-2,3,5,6,7,8-hexahydro-1H-4-oxa-1,6-diaza-anthracene-7-carbonyl]-amino}-propionic acid] | 6.40 | 70.3 |
| N#Cc1ccc(-c2ccc(C[C@H](NC(=O)[C@@H]3Cc4cc5c(cc4CN3Cc3ccccc3F)OC(c3ccc(OCc4ccc(Cl)c(Cl)c4)cc3)C(=O)N5)C(=O)O)cc2)cc1 (stereo partly drawn) [Example 41, (S)-3-(4′-Cyano-biphenyl-4-yl)-2-{[(S)-3-[4-(3,4-dichloro-benzyloxy)-phenyl]-6-(2-fluoro-benzyl)-2-oxo-2,3,5,6,7,8-hexahydro-1H-4-oxa-1,6-diaza-anthracene-7-carbonyl]-amino}-propionic acid] | 6.37 | 42 |
| N#Cc1ccc(-c2ccc(C[C@H](NC(=O)[C@@H]3Cc4cc5c(cc4CN3C(=O)c3c(F)cc(F)cc3F)OC(c3ccc(OCc4ccc(Cl)c(Cl)c4)cc3)C(=O)N5)C(=O)O)cc2)cc1 (stereo partly drawn) [Example 36, (S)-3-(4′-Cyano-biphenyl-4-yl)-2-{[(S)-3-[4-(3,4-dichloro-benzyloxy)-phenyl]-2-oxo-6-(2,4,6-trifluoro-benzoyl)-2,3,5,6,7,8-hexahydro-1H-4-oxa-1,6-diaza-anthracene-7-carbonyl]-amino}-propionic acid] | 6.18 | 13 |
| N#Cc1ccc(-c2ccc(C[C@H](NC(=O)[C@@H]3Cc4cc5c(cc4CN3Cc3ccccc3)OC(c3ccc(OCc4ccc(Cl)c(Cl)c4)cc3)C(=O)N5)C(=O)O)cc2)cc1 (stereo partly drawn) [Example 34, (S)-2-({(S)-6-Benzyl-3-[4-(3,4-dichloro-benzyloxy)-phenyl]-2-oxo-2,3,5,6,7,8-hexahydro-1H-4-oxa-1,6-diaza-anthracene-7-carbonyl}-amino)-3-(4′-cyano-biphenyl-4-yl)-propionic acid] | 6.80 | 31 |
| CC(C)COC(=O)N1Cc2cc3c(cc2C[C@H]1C(=O)N[C@@H](Cc1ccc(-c2ccc(C#N)cc2)cc1)C(=O)O)NC(=O)C(c1ccc(OCc2ccc(Cl)c(Cl)c2)cc1)O3 (stereo partly drawn) [Example 9, (S)-7-[(S)-1-Carboxy-2-(4′-cyano-biphenyl-4-yl)-ethylcarbamoyl]-3-[4-(3,4-dichloro-benzyloxy)-phenyl]-2-oxo-1,2,3,5,7,8-hexahydro-4-oxa-1,6-diaza-anthracene-6-carboxylic acid isobutyl ester] | 6.30 | 54 |
| CC(C)C(=O)N1Cc2cc3c(cc2C[C@H]1C(=O)N[C@@H](Cc1ccc(-c2ccc(C#N)cc2)cc1)C(=O)O)NC(=O)C(c1ccc(OCc2ccc(Cl)c(Cl)c2)cc1)O3 (stereo partly drawn) [Example 13, (S)-3-(4′-Cyano-biphenyl-4-yl)-2-({(S)-3-[4-(3,4-dichloro-benzyloxy)-phenyl]-6-isobutyryl-2-oxo-2,3,5,6,7,8-hexahydro-1H-4-oxa-1,6-diaza-anthracene-7-carbonyl}-amino)-propionic acid] | 5.92 | 59 |
| CN1C(=O)C(c2ccc(OCc3ccc(Cl)c(Cl)c3)cc2)Oc2cc3c(cc21)C[C@@H](C(=O)N[C@@H](Cc1ccc(-c2ccc(C#N)cc2)cc1)C(=O)O)N(CC1(c2ccccc2)CCCC1)C3 (stereo partly drawn) [Example 77, (S)-3-(4′-Cyano-biphenyl-4-yl)-2-{[(S)-3-[4-(3,4-dichloro-benzyloxy)-phenyl]-1-methyl-2-oxo-6-(1-phenyl-cyclopentylmethyl)-2,3,5,6,7,8-hexahydro-1H-4-oxa-1,6-diaza-anthracene-7-carbonyl]-amino}-propionic acid] | 5.77 | 53 |
| N#Cc1ccc(-c2ccc(C[C@H](NC(=O)[C@@H]3Cc4cc5c(cc4CN3C(=O)OC3CCC(O)C3)OC(c3ccc(OCc4ccc(Cl)c(Cl)c4)cc3)C(=O)N5)C(=O)O)cc2)cc1 (stereo partly drawn) [Example 2, (S)-7-[(S)-1-Carboxy-2-(4′-cyano-biphenyl-4-yl)-ethylcarbamoyl]-3-[4-(3,4-dichloro-benzyloxy)-phenyl]-2-oxo-1,2,3,5,7,8-hexahydro-4-oxa-1,6-diaza-anthracene-6-carboxylic acid 3-hydroxy-cyclopentyl ester] | 6.17 | 7.8 |
| N#Cc1ccc(-c2ccc(C[C@H](NC(=O)[C@@H]3Cc4cc5c(cc4CN3C(=O)c3ccccc3)OC(c3ccc(OCc4ccc(Cl)cc4)cc3)C(=O)N5)C(=O)O)cc2)cc1 (stereo partly drawn) [Example 60, (S)-2-({(S)-6-Benzoyl-3-[4-(4-chloro-benzyloxy)-phenyl]-2-oxo-2,3,5,6,7,8-hexahydro-1H-4-oxa-1,6-diaza-anthracene-7-carbonyl}-amino)-3-(4′-cyano-biphenyl-4-yl)-propionic acid] | 5.79 | 62 |
| O=C1Nc2cc3c(cc2OC1c1ccc(OCc2ccc(Cl)c(Cl)c2)cc1)CN(C(=O)c1ccccc1)[C@H](C(=O)N[C@@H](Cc1ccc(Oc2ccncc2)cc1)C(=O)O)C3 (stereo partly drawn) [Example 99, (S)-2-({(S)-6-Benzoyl-3-[4-(3,4-dichloro-benzyloxy)-phenyl]-2-oxo-2,3,5,6,7,8-hexahydro-1H-4-oxa-1,6-diaza-anthracene-7-carbonyl}-amino)-3-[4-(pyridin-4-yloxy)-phenyl]-propionic acid] | 6.00 | 28 |
| CN1C(=O)C(c2ccc(OCc3ccc(Cl)c(Cl)c3)cc2)Oc2cc3c(cc21)C[C@@H](C(=O)N[C@@H](Cc1ccc(-c2ccc(C#N)cc2)cc1)C(=O)O)N(C1CCCCC1)C3 (stereo partly drawn) [Example 75, (S)-3-(4′-Cyano-biphenyl-4-yl)-2-({(S)-6-cyclohexyl-3-[4-(3,4-dichloro-benzyloxy)-phenyl]-1-methyl-2-oxo-2,3,5,6,7,8-hexahydro-1H-4-oxa-1,6-diaza-anthracene-7-carbonyl}-amino)-propionic acid] | 6.61 | 20 |
| N#Cc1ccc(-c2ccc(C[C@H](NC(=O)[C@@H]3Cc4cc5c(cc4CN3C(=O)O[C@@H]3CCOC3)OC(c3ccc(OCc4ccc(Cl)c(Cl)c4)cc3)C(=O)N5)C(=O)O)cc2)cc1 (stereo partly drawn) [Example 19, (S)-7-[(S)-1-Carboxy-2-(4′-cyano-biphenyl-4-yl)-ethylcarbamoyl]-3-[4-(3,4-dichloro-benzyloxy)-phenyl]-2-oxo-1,2,3,5,7,8-hexahydro-4-oxa-1,6-diaza-anthracene-6-carboxylic acid (R)-(tetrahydro-furan-3-yl) ester] | 6.74 | 69.9 |
